Source: article PMC3170524 (Physiological research / Academia Scientiarum Bohemoslovaca, 2010)
Where a chain is given by its changes, count along the chain named.

How the values were obtained:
Assay in all cases: whole-cell patch clamp, peak current dose-response
Format in all cases: cell-based
[1] = target: T1, rat P2X4R (Rattus norvegicus, UniProt P51577, C126A)
T1 sequence (P51577 1-388 C126A): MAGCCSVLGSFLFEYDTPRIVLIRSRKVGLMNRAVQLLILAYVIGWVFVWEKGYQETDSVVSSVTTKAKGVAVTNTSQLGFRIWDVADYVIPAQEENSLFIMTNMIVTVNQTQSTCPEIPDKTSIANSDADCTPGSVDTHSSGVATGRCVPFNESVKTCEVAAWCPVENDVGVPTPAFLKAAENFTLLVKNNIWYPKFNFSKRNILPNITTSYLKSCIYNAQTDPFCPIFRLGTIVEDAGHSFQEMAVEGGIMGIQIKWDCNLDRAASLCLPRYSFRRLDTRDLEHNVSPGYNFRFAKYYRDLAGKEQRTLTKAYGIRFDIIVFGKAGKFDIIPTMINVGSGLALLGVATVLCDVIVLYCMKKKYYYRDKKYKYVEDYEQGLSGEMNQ

[2] = target: T2, rat P2X4R (Rattus norvegicus, UniProt P51577)
T2 sequence (P51577 1-388): T1 sequence (P51577 1-388 C126A) with A126C

[3] = target: T3, rat P2X4R (Rattus norvegicus, UniProt P51577, C270T)
T3 sequence (P51577 1-388 C270T): T1 sequence (P51577 1-388 C126A) with A126C, C270T

[4] = target: T4, rat P2X4R (Rattus norvegicus, UniProt P51577, C261T/C270T)
T4 sequence (P51577 1-388 C261T/C270T): T1 sequence (P51577 1-388 C126A) with A126C, C261T, C270T

EC50 [1]: 24 ± 5.6 µM | EC50 [2]: 4.6 ± 0.5 µM | EC50 [3]: 3.4 ± 1.8 µM | EC50 [4]: 1.7 ± 0.8 µM
SMILES: Nc1ncnc2c1ncn2[C@@H]1O[C@H](COP(=O)(O)OP(=O)(O)OP(=O)(O)O)[C@@H](O)[C@H]1O [ATP]
